Source: US5783568A, “Methods for treating cancer and other cell proliferative diseases” (Sugen, Inc., priority 1994, dated 1998)
Entries after “also recorded” stand apart in the source; their conditions may differ.

How the values were obtained:
[1] = tested on: FGFR1 (flg); assay: FGFR1 (flg) expressed in the two CHO cell lines; format: cell-based
[2] = biological target: sFGFR (soluble extracellular domain of FGFR2 (bek)); assay: Isothermal titration calorimetry, aFGF binding to sFGFR; set-up: species or system human; conditions: ITC
Text: A plasmid encoding the extracellular, ligand-binding domain of human FGFR2 (residues 1-355) was constructed using standard oligonucleotide-directed mutagenesis (Amersham) to introduce a translational termination codon immediately prior to the beginning of the single transmembrane domain of the receptor (Dionne et al., 1990). BamHI and SacII restriction sites were introduced 3' to the new termination codon. An XbaI-SacII fragment was isolated from the replicative form (RF) of this M13 mutagenesis product, filled in using T4 DNA polymerase (Boehringer-Mannheim) and inserted into the SmaI site of the expression vector pCVN (Dionne et al., 1990). This expression vector, which contains both the neomycin resistance and the dihydrofolate reductase genes for selection and amplification, was transfected into CHO cells following published procedures. Wigler et al., 1979, Cell 16:777-785.
The binding of aFGF to sFGFR was studied using the technique of isothermal titration calorimetry (ITC). In this technique the heat liberated (or absorbed) upon binding is monitored as small aliquots of ligand are added sequentially to a solution of the receptor at known concentration, which is maintained at constant temperature. […]

[3] = tested on: FGFR2 (bek); assay: Tyrosine phosphorylation of FGFR2 in wild-type CHO-K1 cells; format: cell-based, human; conditions: 0.1 nM aFGF alone, 5 min at 37° C.
Procedure: Cells were lysed and the receptor was immunoprecipitated with anti-FGFR2 antibodies. Samples were then analyzed by SDS-PAGE, transferred to nitrocellulose membranes, and tyrosine-phosphorylated proteins were detected by immunoblotting with anti-phosphotyrosine antibodies.
Wild-type CHO cells (CHO-K1), as well as heparin sulfate-deficient mutant cells (CHO-pgsD-677) which were kindly provided by Prof. J. Esko (Esko, 1991), were cultured in F-12 medium containing 7.5% FBS, 1% Ampicillin/Streptomycin and 1% glutamine. Both CHO cell lines were co-transfected with the wild-type human FGFR2 (bek) DNA in the expression vector pMJ30 (Dionne et al., 1990) (40 μg/10 cm dish) and the pSVneo resistant gene (0.5 mg/10 cm dish), using the calcium phosphate method (Chen and Okayama, 1987). Geneticin (1 mg/ml) resistant clones were screened for expression of the receptor by immunoprecipitation and immunoblotting analysis using anti-FGFR2 antibodies.
Wild-type and mutant CHO cells were starved overnight in F-12 medium containing 0.5% FBS, and stimulated with either 0.1 nM aFGF, 50 nM heparin, or both, for 5 min at 37° C. Cells were lysed, immunoprecipitated with anti-FGFR2 antibodies and analyzed by immunoblotting with anti-phosphotyrosine (anti-PTyr) antibodies.

[4] = biological target: T1, aFGF (Homo sapiens, UniProt P05230); assay: Isothermal titration calorimetry, binding to aFGF; conditions: from ITC stoichiometry
T1 construct: made in house; host or cells: E. coli

[5] = tested on: FGFR1 extracellular domain; conditions: Kan et al., 1993; cited from earlier work
[6] = tested on: vascular endothelial cells; conditions: cited from earlier work
[7] = tested on: sFGFR (soluble extracellular domain of FGFR2); assay: Binding of sFGFR to a heparin-sepharose column; set-up: species or system human
[8] = tested on: sFGFR (soluble extracellular domain of FGFR2); assay: Isothermal titration calorimetry, heparin binding to sFGFR; set-up: species or system human; conditions: ITC

T1 sequence (P05230 whole entry): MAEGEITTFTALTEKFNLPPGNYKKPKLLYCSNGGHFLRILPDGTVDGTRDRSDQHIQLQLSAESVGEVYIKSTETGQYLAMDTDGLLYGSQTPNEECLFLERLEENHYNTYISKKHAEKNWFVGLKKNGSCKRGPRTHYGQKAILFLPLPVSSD

Kd ([2]; single class of binding sites, mean ± SD of three experiments, no added heparin) [nM] | saccharide units of heparin per one bound aFGF [4] | binding of sFGFR to heparin-sepharose column [7] | Substance | dimerization and autophosphorylation with FGFR1 (flg) [1] | FGFR2 autophosphorylation in CHO-K1 cells [3] | effect of heparin on the aFGF/sFGFR binding parameters ([2]; sFGFR titrated into mixture of heparin and aFGF) | binding to the extracellular domain of FGFR1 [5] | mitogenic effect of aFGF on vascular endothelial cells [6] | heparin binding to sFGFR [8]
528 ± 173 | – | – | aFGF: aFGF was expressed in E. coli and purified by binding to a heparin-sepharose column | Identical results | stimulation of FGFR2 autophosphorylation | – | – | – | –
– | 4-5 saccharide units | could not be detected | heparin | – | – | no effect upon the binding parameters could be detected; also recorded: does not detectably affect the interaction; also recorded: does not influence the affinity of the aFGF/sFGFR interaction | binds to the extracellular domain of FGFR1 | potentiates the mitogenic effect of aFGF on vascular endothelial cells | failed to detect an interaction with significant affinity; also recorded: could not be detected; also recorded: does not itself interact with sFGFR
